Laboratory results published in patent US12605455B2, “CAR peptide for improved coronavirus survival” (Vascular Biosciences, priority 2020, dated 2026).
Where two headings read alike, the source gives them in different places. Bridge positions count the residues as written; N and C are the ends. Peptide text beside a SMILES is read from it.

Assays:
[1] = CAR 3 mg/kg i.v. for 14 days
[2] = Two-month repeat administration of CAR to pigs; type: in vivo; conditions: IV 3 mg/kg
[3] = system: hypertensive lungs; conditions: isolated perfused lung experiments (Toba et al. 2014); cited from earlier work
[4] = Safety pharmacology and TID 10-day rising-dose and multiple-dose tolerance study of CAR in rats; type: in vivo
[5] = Irwin test in rats; type: in vivo
[6] = system: SARS-CoV2; type: in vivo, K18-hACE2 transgenic mice; conditions: hydrocortisone 0.2 mg/kg ip every 6 hours, alone or with CAR 8 mg/kg ip
[7] = system: SARS-CoV2; type: in vivo, K18-hACE2 transgenic mice; conditions: HCT 0.2 mg/kg/dose via IT installation every 24 hours: free, liposome encapsulated or CAR-liposome encapsulated
[8] = system: SARS-CoV2; type: in vivo, K18-hACE2 transgenic mice; conditions: HCT 0.2 mg/kg/dose iv every 12 hours: free, liposome encapsulated or CAR-liposome
[9] = system: CLP sepsis; assay: Cecal ligation and puncture (2CLP) rat model of sepsis, hydrocortisone with or without CAR; type: in vivo, rats
Experimental: At 40 hours, 4 of the 5 rats in the HCT+CAR group survived while none of the rats in either the HCT group nor the sepsis group survived for 40 hours (n=5 in each group) (Log-rank P=0.008).
8-10 week-old male Sprague Dawley rats were exposed to CLP. Rats were randomized (n=5/group) to saline, hydrocortisone (0.2 mg/kg IV), or CAR (3 mg/kg IV)+HCT. Treatments were initiated 12 hours after surgery, and given every 12 hours afterwards until death, for a maximum of 5 days. Rats were treated with fluid resuscitation but not with antibiotics in this model. Survival was highest in the CAR+HCT group (FIG. 6) (Log-rank P=0.008) and the median Ang2/Ang1 ratio was lower in CAR+HCT than the hydrocortisone group (0.60 vs 1.69, p=0.06).

[10] = system: LPS-induced endotoxemia; assay: Survival after LPS-endotoxemia, hydrocortisone with or without CAR; type: in vivo, mice; conditions: for survival rate 48 hours after LPS: C57BL/6 male mice, LPS 20 mg/kg IP
Experimental: 10-week-old C57BL/6 male mice were given an intraperitoneal (IP) injection of Escherichia coli 055:B5 LPS 20 mg/kg. Mice were injected i.p. with 20 mg/kg lipopolysaccharide (LPS). Five different treatments were initiated: saline only group (Untreated, n=31); CAR peptide-alone administration 20 mg/kg ([…]) (CAR alone, n=20); hydrocortisone 0.2 mg/kg or 10 mg/kg Low-HCT or High-HCT, n=20, 28 respectively); and CAR 20 mg/kg co-administered with hydrocortisone 0.2 mg/kg (Low HCT+CAR, n=20). Hydrocortisone and/or CAR peptide were injected intraperitoneally at 3, 12 and 24 hours after LPS administration.

[11] = system: endothelium and endothelial glycocalyx of kidney, lung and liver; assay: Ultrastructural analysis (scanning electron microscopy) of endothelium and endothelial glycocalyx after LPS; type: in vivo; conditions: mice 48 hours after LPS; hydrocortisone 0.2 mg/kg with or without CAR
Experimental: Capillaries of the kidney are fenestrated capillaries which have small holes at endothelial cells. The destruction of this structure was 48 hours after LPS injection. Then, the endothelial wall became edematous and there was deposited fibrin on it. Capillaries of the lung are continuous type of capillaries. Although the vascular endothelium of the lung is thinner at the edges of the nucleus, edema occurred and vascular endothelial structure was impaired 48 hours after LPS injection. Capillaries of the liver are sinusoids which have a lot of large […] gap in normal capillaries. 48 hours after LPS administration, these structures have already broken the edematous of the vascular endothelium and deposited fibrin.
The endothelial glycocalyx (GCX) of the apical endothelial surface of each organ can by visualized using scanning electron microscopy (SEM) to assess GCX appearance and structure. GCX was largely denuded in the untreated sepsis group but the GXX damage was attenuated when CAR is co-administered with low-HCT.
Mice were sacrificed at 48 hours after LPS administration, and kidney, lung and liver were obtained to create frozen fracture freeze-dried samples to detect endothelial changes with electron microscopy. The specimens were examined under a scanning electron microscope (S-4500, Hitachi). […]

[12] = system: endothelium of lung, liver and kidney; assay: Scanning electron micrographs of lung, liver and kidney, sivelestat with or without CAR in septic animals; type: in vivo
Excerpt: Scanning electron micrographs of lung tissue from control, sivelestat alone, and CAR+sivelestat treated animals. The pulmonary vasculature is shown in the enlargement.
Scanning electron micrographs of liver tissue from control, sivelestat alone, and CAR+sivelestat treated animals. The fenestrated sinusoidal endothelium with clusters of fenestrations, or ‘sieve plates,’ are visible in the control liver vasculature.
Scanning electron micrographs of kidney tissue from control, sivelestat alone, and CAR+sivelestat treated animals. In the enlargement shown of the […] vasculature, the fenestrated glomerular endothelium surrounded by podocyte foot processes (red arrow). […] This is presumably due to activation of neutrophil elastase which leads to proteolytic degradation of critical extracellular matrix proteins. […] The activity of sivelestat's anti-elastase appears to be efficiently boosted by CAR's selective homing to the injured endothelial glycocalyx in the kidney.
(§1) Thus, CAR could potentially adjuvant efficacy of other drugs against viral sepsis, including CAR in combination with sivelstat, as shown at lung (FIG. 9), liver (FIG. 10) and kidney (FIG. 11) samples.

[13] = system: LPS model of sepsis; assay: LPS model of sepsis, survival with sivelestat with or without CAR; type: in vivo
Excerpt: as §1

[14] = sivelestat 0.5 mg/kg or sivelestat 0.5 mg/kg + CAR

## C[C@@H]1NC(=O)[C@@H](N)CSSC[C@@H](C(=O)O)NC(=O)[C@H](CC(=O)O)NC(=O)[C@H](CCCCN)NC(=O)[C@H](CC(N)=O)NC(=O)[C@H](CCCCN)NC(=O)[C@H](CO)NC(=O)[C@H](CCCNC(=N)N)NC1=O [CAR, CARSKNKDC] (H-CARSKNKDC-OH; disulfide 1-9; N-terminus and C-terminus assumed)
[1]; healthy adult Sprague-Dawley rats
  Creatinine: 0.45 ± 0.02 mg/dL
[1]; healthy rats
  ALP: 170 ± 18 U/L
  AST: 141 ± 31 U/L
  BUN: 17 ± 1 mg/dL
  Glucose: 213 ± 5
  Hb: 12.8 ± 0.2 g/dL
  Tbili: 0.10 ± 0.04 mg/dL
  Wbc: 4.0 ± 0.7 ×1000/μL
  impact on blood renal function, hepatic function, hematologic tests and glucose hemostasis: no impact
[2]
  immunological effects or signs of toxicity: no immunological effects or signs of toxicity
[3]
  concentration of the co-administered drug in the diseased lung: doubling
[4]; TID 10-day rising-dose and multiple-dose, up to highest dose 20 mg/kg IV
  mortality, clinical observations, hematology, coagulation, clinical chemistry: no mortality, adverse clinical observations, and no aberrations in hematology, coagulation or clinical chemistry
[4]; up to the highest levels of CAR tested
  adverse effects on vital physiological systems (safety pharmacology): no adverse effects
[5]
  adverse effects on behavior and physiological function: no adverse effects

## C[C@]12CCC(=O)C=C1CC[C@@H]1[C@@H]2[C@@H](O)C[C@@]2(C)[C@H]1CC[C@]2(O)C(=O)CO [HCT, hydrocortisone]
[6]
  survival at 7 dpi: some improvements in survival
[7]
  survival at 7 dpi: some improvements in survival
[8]
  survival at 7 dpi: some improvements in survival
[9]; 2CLP rats, n=5 in each group, hydrocortisone 0.2 mg/kg IV with or without CAR 3 mg/kg IV every 12 hours from 12 hours after surgery
  rats surviving at 40 hours: none
[9]; CLP rats
  hyperglycemia: hyperglycemia observed
[9]; CLP rats, p=0.06
  median Ang2/Ang1 ratio: 1.69
[10]; hydrocortisone 0.2 mg/kg alone or with CAR 20 mg/kg, IP at 3, 12 and 24 hours
  survival rate 48 hours after LPS: 30%
[10]; hydrocortisone 10 mg/kg (High-HCT) IP at 3, 12 and 24 hours
  survival rate 48 hours after LPS: 57%
[10]; CAR alone 20 mg/kg, hydrocortisone 0.2 mg/kg (Low-HCT)
  survival difference versus untreated sepsis 48 hours after LPS: no significant survival difference
[11]
  endothelial ultrastructure of kidney, lung and liver capillaries: no beneficial effect for septic endothelial disorders

## CC(C)(C)C(=O)Oc1ccc(S(=O)(=O)Nc2ccccc2C(=O)NCC(=O)O)cc1 [Sivelestat, sivelestat]
[12]
  glomerular endothelium fenestrations, SEM kidney images: fenestrations are absent and gross tissue damage is apparent
  liver sinusoidal endothelium sieve plates, SEM liver images: not able to prevent defenestration of sieve plates
  pulmonary arteriole endothelium, SEM lung images: did not prevent degradation of the continuous pulmonary arteriole endothelium
[13]; sivelestat 0.5 mg/kg (n=20) or sivelestat 0.5 mg/kg + CAR (n=18)
  Survival Rate (%) 12 h: 100%
[13]; [14]
  Survival Rate (%) 24 h: 85%
  Survival Rate (%) 36 h: 60%
  Survival Rate (%) 48 h: 50%
